This note sets out measurements from patent US20260193238A1, “PHARMACEUTICAL COMPOUNDS AS PARP7 AND/OR PARP1 INHIBITORS” (Duke Street Bio Limited, priority 2022, published 2026).

Sequence of PARP1 (P09874 whole entry): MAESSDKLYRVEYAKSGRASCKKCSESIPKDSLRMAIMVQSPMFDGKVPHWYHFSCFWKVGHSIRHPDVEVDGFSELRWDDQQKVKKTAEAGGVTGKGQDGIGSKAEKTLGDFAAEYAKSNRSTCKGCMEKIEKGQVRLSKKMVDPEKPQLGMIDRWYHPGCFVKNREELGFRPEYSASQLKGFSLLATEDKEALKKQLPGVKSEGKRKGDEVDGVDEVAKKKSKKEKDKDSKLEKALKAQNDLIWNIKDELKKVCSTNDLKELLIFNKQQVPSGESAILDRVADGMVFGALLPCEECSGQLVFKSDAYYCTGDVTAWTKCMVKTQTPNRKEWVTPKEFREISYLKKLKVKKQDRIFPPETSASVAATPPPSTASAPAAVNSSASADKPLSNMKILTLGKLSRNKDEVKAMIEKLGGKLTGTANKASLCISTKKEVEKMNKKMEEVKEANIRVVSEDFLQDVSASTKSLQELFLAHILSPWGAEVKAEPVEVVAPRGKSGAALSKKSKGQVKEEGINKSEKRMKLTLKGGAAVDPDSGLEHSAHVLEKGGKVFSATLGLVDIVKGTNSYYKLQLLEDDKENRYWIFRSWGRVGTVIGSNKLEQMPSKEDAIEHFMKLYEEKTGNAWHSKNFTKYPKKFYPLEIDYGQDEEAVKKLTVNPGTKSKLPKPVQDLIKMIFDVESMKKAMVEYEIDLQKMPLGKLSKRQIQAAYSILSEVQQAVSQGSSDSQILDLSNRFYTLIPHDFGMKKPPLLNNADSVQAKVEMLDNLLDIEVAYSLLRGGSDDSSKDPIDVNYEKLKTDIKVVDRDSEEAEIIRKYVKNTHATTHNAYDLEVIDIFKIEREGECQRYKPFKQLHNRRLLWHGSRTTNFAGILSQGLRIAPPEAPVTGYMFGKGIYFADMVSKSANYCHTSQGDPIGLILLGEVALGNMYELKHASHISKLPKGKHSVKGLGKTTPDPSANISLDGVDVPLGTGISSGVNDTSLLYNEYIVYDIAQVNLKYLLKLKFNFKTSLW

One test has as its target PARP1 (Homo sapiens, UniProt P09874). In words: PARP1 biochemical DELFIA assay (auto-PARylation). The settings on record: Table 1.
Procedure: Prior to assay, wells were washed 3×5 min in coating wash buffer.
% data was fitted to a non-linear regression equation (log inhibitor vs response-variable slope 4-parameters) to obtain IC50 values.
In turn, `O=C(CCN1CCCC(c2cc(C(F)(F)F)c(=O)[nH]n2)C1)N1CCN(c2cnc(C(F)(F)F)cn2)CC1` (racemic) [Compound 30rac] returned an IC50 of 100 to 1000 nM.
`O=C(CN1CCN(c2ncc(C(F)(F)F)cn2)CC1)N1CCCC1c1cc(C(F)(F)F)c(=O)[nH]n1` (single isomer, unassigned) [Compound 32a] came in with an IC50 of 100 to 1000 nM.
In turn, `O=C(CCN1CCCC1c1cc(C(F)(F)F)c(=O)[nH]n1)N1CCN(c2ncc(C(F)(F)F)cn2)CC1` (single isomer, unassigned) [Compound 18a, 6-(1-(3-oxo-3-(4-(5-(trifluoromethyl)pyrimidin-2-yl)piperazin-1-yl)propyl)pyrrolidin-2-yl)-4-(trifluoromethyl)pyridazin-3(2H)-one] came in with an IC50 of 10 to 100 nM.
The compound `O=C(CCN1CCN(c2ncc(C(F)(F)F)cn2)CC1)N1CCCC(c2cc(C(F)(F)F)c(=O)[nH]n2)C1` (single isomer, unassigned) [Compound 9a] yielded an IC50 of 100 to 1000 nM.
With `CCc1cc(C2CCCN(CCC(=O)N3CCN(c4ncc(C(F)(F)F)cn4)CC3)C2)n[nH]c1=O` (single isomer, unassigned) [Compound 6a, 4-ethyl-6-(1-(3-oxo-3-(4-(5-(trifluoromethyl)pyrimidin-2-yl)piperazin-1-yl)propyl)piperidin-3-yl)pyridazin-3(2H)-one], the IC50 fell in the range of 10 to 100 nM.
With “6-(1-(3-oxo-3-(4-(5-(trifluoromethyl)pyrimidin-2-yl)piperazin-1-yl)propyl)azetidin-2-yl)-4-(trifluoromethyl)pyridazin-3(2H)-one [Compound 5rac]”, the IC50 was 10 to 100 nM.

The same test, now with this note: Table 1A.
`N#Cc1ccc2nc(N3CCN(C(=O)CN4CCCC4c4cc(C(F)(F)F)c(=O)[nH]n4)CC3)oc2c1` (single isomer, unassigned) [Compound 96a] came in with an IC50 of 100 to 1000 nM.
With `CN(C(=O)CN1CCCC1c1cc(C(F)(F)F)c(=O)[nH]n1)C1CCN(c2ncc(C(F)(F)F)cn2)CC1` (single isomer, unassigned) [Compound 34b], the IC50 was 1000 to 10000 nM.
Still for that read-out and setting: in the case of `CC1(C)C[C@H](c2cc(C(F)(F)F)c(=O)[nH]n2)N(CC(=O)N2CCN(c3ncc(C(F)(F)F)cn3)CC2)C1` [Compound 94a] it was 10 to 100 nM.
Same read-out and setting: in the case of `O=C(CN1CCCC1c1cc(C(F)(F)F)c(=O)[nH]n1)C1CCN(c2ncc(C(F)(F)F)cn2)CC1` (single isomer, unassigned) [Compound 75a] it was 10 to 100 nM; in that of `COC1CC(c2cc(C(F)(F)F)c(=O)[nH]n2)N(CC(=O)N2CCN(c3ncc(C(F)(F)F)cn3)CC2)C1` (single isomer, unassigned) [Compound 138trans1, 6-(4-methoxy-1-(2-oxo-2-(4-(5-(trifluoromethyl)pyrimidin-2-yl)piperazin-1-yl)ethyl)pyrrolidin-2-yl)-4-(trifluoromethyl)pyridazin-3(2H)-one], 100 to 1000 nM; in that of `CC1(C)CC(c2cc(C(F)(F)F)c(=O)[nH]n2)CN(CCC(=O)N2CCN(c3ncc(C(F)(F)F)cn3)CC2)C1` (single isomer, unassigned) [Compound 87a], 100 to 1000 nM.
In the case of `O=C(CN1CCCC1c1cc(C(F)(F)F)c(=O)[nH]n1)N1CCN(c2ncc(Cl)cc2Cl)CC1` (single isomer, unassigned) [Compound 125b], the IC50 lay in the range of 1000 to 10000 nM.
`N#Cc1cc(C2CCCN2CC(=O)N2CCN(c3nc4cc(F)ccc4o3)CC2)n[nH]c1=O` (single isomer, unassigned) [Compound 149b]: the IC50 was over 10000 nM.
`O=C(CN1CCCCC1c1cc(C(F)(F)F)c(=O)[nH]n1)N1CCN(c2ncc(C(F)(F)F)cn2)CC1` (single isomer, unassigned) [Compound 66b] yielded an IC50 of over 10000 nM.
The compound `O=C(CN1CCCC1c1cc(C(F)(F)F)c(=O)[nH]n1)N1CCN(c2nc3cc(Cl)ccc3o2)CC1` (single isomer, unassigned) [Compound 99a] displayed an IC50 of at most 10 nM.
Compound `N#Cc1ccc(N2CCN(C(=O)CN3CCCC3c3cc(C(F)(F)F)c(=O)[nH]n3)CC2)cc1` (single isomer, unassigned) [Compound 71b] had a concentration for half-maximal inhibition (IC50) of 10 to 100 nM.
For `O=C(CN1CCCC1c1cc(C(F)(F)F)c(=O)[nH]n1)N1CCN(c2ncc(F)cc2C(F)(F)F)CC1` (single isomer, unassigned) [Compound 120a], the IC50 lay within 1000 to 10000 nM.
Compound `O=C(CN1CCCC1c1cc(C(F)(F)F)c(=O)[nH]n1)N1CCC(c2ncc(C(F)(F)F)cn2)CC1` (single isomer, unassigned) [Compound 70a] registered an IC50 of 1000 to 10000 nM.
`O=C(CN1CCCC1c1cc(C(F)(F)F)c(=O)[nH]n1)N1CCN(c2ccc(Cl)cn2)CC1` (single isomer, unassigned) [Compound 41a] registered an IC50 of 10 to 100 nM.
In the case of `O=C(CN1CCCC1c1cc(C(F)(F)F)c(=O)[nH]n1)N1CCN(c2nc3cc(F)ccc3o2)CC1` (single isomer, unassigned) [Compound 150b], the IC50 was 1000 to 10000 nM.
In turn, `O=C(CN1CCCC1c1c[nH]c(=O)c(C(F)(F)F)c1)N1CCN(c2ncc(C(F)(F)F)cn2)CC1` (racemic) [Compound 60rac, 5-(1-(2-oxo-2-(4-(5-(trifluoromethyl)pyrimidin-2-yl)piperazin-1-yl)ethyl)pyrrolidin-2-yl)-3-(trifluoromethyl)pyridin-2(1H)-one] showed an IC50 of 100 to 1000 nM.
On the same count and under the same terms, the same measure for `O=C(CN1CCCC1c1c[nH]c(=O)c(C(F)(F)F)c1)N1CCN(c2ncc(Cl)cn2)CC1` (single isomer, unassigned) [Compound 74a]: 10 to 100 nM.
The same measure, in the same setting: in the case of `N#Cc1ccc(N2CCN(C(=O)CN3CCCC3c3c[nH]c(=O)c(C(F)(F)F)c3)CC2)nc1` (single isomer, unassigned) [Compound 77b] it was 100 to 1000 nM.
Compound `O=C(CN1CCCC1c1cc(C(F)(F)F)c(=O)[nH]n1)N1CCN(c2nc3ccc(Cl)cc3o2)CC1` (single isomer, unassigned) [Compound 85a] displayed an IC50 of at most 10 nM.
In turn, `O=C(CN1CCCC1c1cc(C(F)(F)F)c(=O)[nH]n1)N1CCN(c2ccc(C3CC3)cn2)CC1` (single isomer, unassigned) [Compound 79a] gave an IC50 of 10 to 100 nM.
Turning to `O=C(CN1CCCC1c1cc(C(F)(F)F)c(=O)[nH]n1)N1CCN(c2nc3cc(Cl)ccc3o2)CC1` (single isomer, unassigned) [Compound 99b], the IC50 was in the range of 1000 to 10000 nM.
`CNC(=O)c1ccc(N2CCN(C(=O)CCN3CCC3c3cc(C(F)(F)F)c(=O)[nH]n3)CC2)cn1` (single isomer, unassigned) [Compound 56b]: the IC50 lay within 100 to 1000 nM.
On to `CNC(=O)c1ccc(N2CCN(C(=O)CCN3CCC(c4cc(C(F)(F)F)c(=O)[nH]n4)CC3)CC2)cn1` [Compound 59], for which the IC50 is 10 to 100 nM.
The compound `O=C(CN1Cc2ccccc2C1c1cc(C(F)(F)F)c(=O)[nH]n1)N1CC(Oc2ncc(C(F)(F)F)cn2)C1` (single isomer, unassigned) [Compound 114b] displayed an IC50 of 1000 to 10000 nM.
The compound `N#Cc1[nH]c(=O)c(C(F)(F)F)cc1C1CCCN1CC(=O)N1CCN(c2ncc(C(F)(F)F)cn2)CC1` (racemic) [Compound 115rac] had an IC50 of over 10000 nM.
Same read-out and setting: the same measure for `O=C(CN1CCCC1c1cc(C(F)(F)F)c(=O)[nH]n1)N1CCN(c2nc3ccccn3n2)CC1` (single isomer, unassigned) [Compound 117a]: at most 10 nM; for `O=C(CN1CCCC1c1cc(C(F)(F)F)c(=O)[nH]n1)N1CCN(c2ncc(C3CC3)cn2)CC1` (single isomer, unassigned) [Compound 69a]: 10 to 100 nM.

A word on the IC50: it is the point on the concentration scale where inhibition reaches its midpoint. Read a high IC50 as lower potency.
